Common to all, as to type: functional
Experiment [1] concerns Spodoptera littoralis. Put plainly: Antifeedant activity against Spodoptera littoralis measured at 1 mg/l after 8 to 24 hr by behavioral bioassay.
For experiment [2], the system named is Spodoptera littoralis. Description: Antifeedant activity against Spodoptera littoralis measured at 10 mg/l after 8 to 24 hr by behavioral bioassay.
In experiment [3] the test system is Spodoptera littoralis. Put plainly: Antifeedant activity against Spodoptera littoralis measured at 50 mg/l after 8 to 24 hr by behavioral bioassay.
Experiment [4] deals with Spodoptera littoralis. Description: Antifeedant activity against Spodoptera littoralis measured at 100 mg/l after 8 to 24 hr by behavioral bioassay.

Molecules are shown by their SMILES.

`CCCCCCCCCCCCCC(O)CC(=O)OC` (stereo not drawn) [3-HYDROXYHEXADECANOIC ACID METHYL ESTER]: the AFI in the experiment on Spodoptera littoralis [1] was -3.5%; with Spodoptera littoralis [2], 9.1%; in the experiment with Spodoptera littoralis [3], 32%; with Spodoptera littoralis [4] it was 45%.

Regarding `C=C(C)[C@@H](CC)CC[C@@H](C)[C@H]1CC[C@H]2[C@@H]3CC=C4C[C@@H](OC(=O)CCC)CC[C@]4(C)[C@H]3CC[C@]12C` [MIGHAVIDE], the AFI is -0.5% with Spodoptera littoralis [3] and 10.3% with Spodoptera littoralis [4].

`C=C(C)[C@@H](CC)CC[C@@H](C)[C@H]1CC[C@H]2[C@@H]3CC=C4C[C@@H](O)CC[C@]4(C)[C@H]3CC[C@]12C` [CLEROSTEROL]: the AFI was -15.3% with Spodoptera littoralis [3] and 3.3% in the experiment with Spodoptera littoralis [4].
